This note sets out measurements from patent US20250296971A1, “GASTRIC INHIBITORY PEPTIDE RECEPTOR LIGANDS” (priority 2021, published 2025).

The target of the test is T1, GIPR (CHO-K1-hGIPR cells) (Homo sapiens, UniProt P48546).
T1 construct: host or cells: CHO-K1
T1 sequence (P48546 22-466): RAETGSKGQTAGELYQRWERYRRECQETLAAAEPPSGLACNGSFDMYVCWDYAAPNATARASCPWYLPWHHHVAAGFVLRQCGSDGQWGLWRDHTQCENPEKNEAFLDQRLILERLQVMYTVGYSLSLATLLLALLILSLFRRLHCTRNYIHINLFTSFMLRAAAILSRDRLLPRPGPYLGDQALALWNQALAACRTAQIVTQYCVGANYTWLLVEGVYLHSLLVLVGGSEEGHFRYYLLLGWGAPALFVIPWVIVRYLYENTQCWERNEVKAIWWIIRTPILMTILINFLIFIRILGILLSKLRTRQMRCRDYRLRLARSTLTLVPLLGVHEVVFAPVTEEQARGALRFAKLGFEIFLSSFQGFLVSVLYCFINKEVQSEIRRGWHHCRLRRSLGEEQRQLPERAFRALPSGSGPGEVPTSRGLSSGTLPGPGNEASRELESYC
As to the kind of experiment: FACS binding assay. The settings on record: competition with 20 nM GIP-057, 4° C., 1 hour; for IC50: read-out: pIC50 Category (converted). Put shortly: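 Median fluorescence in the APC channel, measured on washed CHO-K1 cells overexpressing human GIPR, was fitted by four-parameter logistic regression against peptide concentration to yield EC50 or IC50 values. Secondary labelling used APC-streptavidin (1 μg/mL, 30 min, ice).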
(Flow cytometry measures light scatter and fluorescence of single cells or particles in a stream.)

*1 amine or outer side, *2 acyl side, *3 side chain or, on linkers, in order; H or OH if unused. Where a SMILES comes first, the peptide text is derived from it. Bridges are numbered along the chain shown (N, C = ends). Side-chain parts run from the residue outwards. [ ]: non-standard residue; d: D form. The star is where a group is joined. X5 = NC(=O)[C@H](CCCCNC(=O)CN1CCN(CC(=O)O)CCN(CC(=O)O)CCN(CC(=O)O)CC1)NC(=O)CCC(=O)NCCCOCCOCCOCCCN*; DOTA(Ga) = O=C1CN2CCN3CCN(CC(=O)*)CCN(CC2)CC(=O)[O][Ga]([O]1)[O]C(=O)C3; DOTA(Lu) = O=C1CN2CCN3CCN(CC(=O)*)CCN(CC2)CC(=O)[O][Lu]([O]1)[O]C(=O)C3; NH(1-deoxy-D-glucityl) = OC[C@@H](O)[C@@H](O)[C@H](O)[C@@H](O)CN*; DOTA = O=C(O)CN1CCN(CC(=O)O)CCN(CC(=O)*)CCN(CC(=O)O)CC1; Trp(5-Cl) = N[C@@H](Cc1c[nH]c2ccc(Cl)cc12)C(=O)O; Pyridine(2,6-diCH2) = c1cc(C[*:1])nc(C[*:2])c1; Pro(4R-NH2) = N[C@H]1CN[C@H](C(=O)O)C1; 1Nal = N[C@@H](Cc1cccc2ccccc12)C(=O)O; mXylylene = c1cc(C[*:1])cc(C[*:2])c1; Glutaryl = O=C(CCCC(=O)[*:2])[*:1]; Hyp = O=C(O)[C@@H]1C[C@@H](O)CN1; X1 = O=C(CN1CCC(N[*:1])CC1)[*:2]; Suc = O=C(CCC(=O)[*:2])[*:1]; Api = NC1(C(=O)O)CCNCC1; Aib = CC(C)(N)C(=O)O Where only a bound is given, the exact number is not on record here.

For `CC[C@H](C)[C@@H]1NC(=O)[C@H](CC(C)C)NC(=O)C2(CCN(C(=O)CN3CCN4CCN5CCN(CC3)CC(=O)[O][Lu]([O]C(=O)C5)[O]C(=O)C4)CC2)NC(=O)[C@@H](NC(=O)[C@@H](CC(C)C)NC(=O)[C@H](CCC(=O)O)NC(=O)[C@@H]2C[C@@H](N)CN2C(=O)[C@H](Cc2c[nH]c3ccc(Cl)cc23)NC(=O)[C@H](Cc2c[nH]c3ccccc23)NC(=O)[C@H](CC(=O)O)NC(=O)CCCC(=O)NC[C@H](O)[C@@H](O)[C@H](O)[C@H](O)CO)CSCc2cccc(n2)CSC[C@@H](C(=O)NC2CCN(CC(=O)N[C@H](CCC(=O)NC[C@H](O)[C@@H](O)[C@H](O)[C@H](O)CO)C(N)=O)CC2)NC1=O` [GIP-067, AGLU-Glutar-Asp-Trp-5Clw-Tap-Glu-leu-[Cys(2Lut)-Apc(LuDOTA)-Leu-Ile-Cys]-APAc-glu(AGLU)-NH2] ({NH(1-deoxy-D-glucityl)-Glutaryl}-DW[Trp(5-Cl)][Pro(4R-NH2)]E[dL]C[Api](DOTA(Lu))LIC[X1][dE](NH(1-deoxy-D-glucityl))-NH2; linker 7-11 via Pyridine(2,6-diCH2)), the “pIC50 Category” value was “A (pIC50 values>8.0)”. As for `CC[C@H](C)[C@@H]1NC(=O)[C@H](CC(C)C)NC(=O)C2(CCN(C(=O)CN3CCN4CCN5CCN(CC3)CC(=O)[O][Ga]([O]C(=O)C5)[O]C(=O)C4)CC2)NC(=O)[C@@H](NC(=O)[C@@H](CC(C)C)NC(=O)[C@H](CCC(=O)O)NC(=O)[C@@H]2C[C@@H](O)CN2C(=O)[C@H](Cc2c[nH]c3ccc(Cl)cc23)NC(=O)[C@H](Cc2c[nH]c3ccccc23)NC(=O)[C@H](CC(=O)O)NC(=O)CCCC(=O)NC[C@H](O)[C@@H](O)[C@H](O)[C@H](O)CO)CSCc2cccc(n2)CSC[C@@H](C(=O)NC2CCN(CC(=O)N[C@H](CCC(=O)NC[C@H](O)[C@@H](O)[C@H](O)[C@H](O)CO)C(N)=O)CC2)NC1=O` [GIP-070, AGLU-Glutar-Asp-Trp-5Clw-Hyp-Glu-leu-[Cys(2Lut)-Apc(GaDOTA)-Leu-Ile-Cys]-APAc-glu(AGLU)-NH2] ({NH(1-deoxy-D-glucityl)-Glutaryl}-DW[Trp(5-Cl)][Hyp]E[dL]C[Api](DOTA(Ga))LIC[X1][dE](NH(1-deoxy-D-glucityl))-NH2; linker 7-11 via Pyridine(2,6-diCH2)), the IC50 was under 10 nM. Still for that read-out and setting: then `CC[C@H](C)[C@@H]1NC(=O)[C@H](CC(C)C)NC(=O)C2(CCN(C(=O)CCCC(=O)NC[C@H](O)[C@@H](O)[C@H](O)[C@H](O)CO)CC2)NC(=O)[C@@H](NC(=O)[C@@H](CC(C)C)NC(=O)[C@H](CCC(=O)O)NC(=O)[C@@H]2C[C@@H](O)CN2C(=O)[C@H](Cc2c[nH]c3ccc(Cl)cc23)NC(=O)[C@H](Cc2c[nH]c3ccccc23)NC(=O)CCC(=O)O)CSCc2cccc(n2)CSC[C@@H](C(=O)NC2CCN(CC(=O)N[C@@H](CCCCNC(=O)CN3CCN(CC(=O)O)CCN(CC(=O)O)CCN(CC(=O)O)CC3)C(N)=O)CC2)NC1=O` [GIP-073, HO-Succinyl-Trp-5Clw-Hyp-Glu-leu-[Cys(2Lut)-Apc(AGLU-Glutar)-Leu-Ile-Cys]-APAc-Lys(DOTA)-NH2] (Suc-W[Trp(5-Cl)][Hyp]E[dL]C[Api]([Glutaryl-NH(1-deoxy-D-glucityl)])LIC[X1]K(DOTA)-NH2; linker 6-10 via Pyridine(2,6-diCH2)), with under 10 nM. For the molecule `CC[C@H](C)[C@@H]1NC(=O)[C@H](CC(C)C)NC(=O)C(C)(C)NC(=O)[C@@H](NC(=O)[C@H](CC(C)C)NC(=O)[C@H](CCC(=O)O)NC(=O)[C@@H]2CCCN2C(=O)[C@H](Cc2cccc3ccccc23)NC(=O)[C@H](Cc2c[nH]c3ccccc23)NC(=O)[C@H](CC(=O)O)NC(C)=O)CSCc2cccc(c2)CSC[C@@H](C(=O)NCCCOCCOCCOCCCNC(=O)CCC(=O)N[C@@H](CCCCNC(=O)CN2CCN(CC(=O)O)CCN(CC(=O)O)CCN(CC(=O)O)CC2)C(N)=O)NC1=O` [GIP-074, Ac-Asp-Trp-1Ni-Pro-Glu-Leu-[Cys(3MeBn)-Aib-Leu-Ile-Cys]-Ttds-Lys(DOTA)-NH2] (Ac-DW[1Nal]PELC[Aib]LIC-X5; linker 7-11 via mXylylene), the IC50 was under 10 nM.
